Source: US20230119764A1, “APPLICATION OF DIMETHYL BERBAMINE COMPOUND IN INHIBITION OF SARS-COV-2” (priority 2020, published 2023)
“Also recorded” adds a separate entry of the source.

Tests used:
[1] = system: SARS-CoV-2 virus (nCoV-2019BetaCoV/Wuhan/WIV04/2019 isolate); assay: microbe, parasite or virus in culture; format: cell-based; conditions: for Inhibition of SARS-CoV-2 (in words): Example 2, drug added after virus infection of cells; for EC50: Severe acute respiratory syndrome coronavirus 2, Vero C1008, Example 2, no drug pretreatment; for SI (selectivity index): Example 2, no drug pretreatment
[2] = Drug cytotoxicity on cells, CellTiter-Glo kit; format: cell-based; conditions: African green monkey, Vero-E6 cells, 24 hours
Method: (§1) 1.5.1 Vero E6 cell culture: 0.1 ml of 0.25% trypsin, 5 ml of 0.02% EDTA were added to a culture flask full of cells, the digestion was carried out at 37° C. for 5 minutes, then the digestion solution was discarded, the cell culture solution was added and then mixed by pipetting up-down. The cells were subcultured at 1:3, reached confluence within 3 days, formulated into 100,000 cells per ml, inoculated to a 96-well cell culture plate, 0.1 ml per well, and cultured at 37° C., 5% CO2 for 24 hours, and the cells grew into monolayer was used for experiment.
(§2) 1.5.2 Experiment of Drug Cytotoxicity on Cells:
(§3) The detection of drug cytotoxicity was determined using CellTiter-Glo kit (Promega). Specific steps were as follows:
(§4) (1) 1×10^4 Vero-E6 cells were inoculated in a 96-well plate and cultured at 37° C. for 8 hours.
(§5) (2) The stock solution of drug was diluted with MEM medium containing 2% FBS to the desired concentration, the original medium in the 96-well plate was discarded, and 100 μL of the drug-containing MEM medium was taken and added to the corresponding wells, so that the final concentrations of drug in the wells were those shown in Tables 1 to 3, respectively, and three replicate wells were made for each concentration. At the same time, a vehicle control (adding DMSO or PBS, and 2% FBS-containing MEM medium without drug to the cell wells) and a blank control (adding DMSO and 2% FBS-containing MEM medium to the wells without cells) were set. After the addition of drug, the cells were incubated at 37° C. for 24 hours.
(§6) (3) 100 μL of CellTiter-Glo solution (Promega) was added to the wells to be tested, and mixed by shaking for 2 min to fully lyse the cells, incubated at room temperature for 10 minutes, and readings of chemiluminescence signals […] were obtained on a microplate reader (purchased from Molecular Devices, model: SpectraMax M5). The cell viability was calculated by taking the readings into the following formula:
(§7) Cell viability (%)=(A(drug treatment group)−A(blank control))/(A(vehicle control)−A(blank control))×100%
(§8) where A represented the reading on the microplate reader.

Vero-E6 cells = assay: Drug cytotoxicity on cells, CellTiter-Glo kit; format: cell-based; conditions: for Cell viability (% of vehicle control): Vero-E6, 24 hours
Method: as §1, §2, §3, §4, §5, §6, §7, §8

SARS-CoV-2 virus = conditions: previous studies, Wang et al., 2020; cited from earlier work
[3] = system: SARS-CoV-2 virus (nCoV-2019BetaCoV/Wuhan/WIV04/2019 isolate); assay: microbe, parasite or virus in culture; format: cell-based; conditions: for Copy number of viral genome (MOI = 0.01): MOI 0.01, Vero E6 supernatant; for Copy number of viral genome (MOI = 0.01) / Copy number of viral genome (MOI = 0.05): 48 h, copy number per milliliter; for Copy number of viral genome (MOI = 0.05): MOI 0.05, Vero E6 supernatant; for Inhibition of SARS-CoV-2 (in words): Example 1, in vitro, Vero E6; for EC50: Severe acute respiratory syndrome coronavirus 2, Vero C1008, Example 1, drug pretreatment 1 hour; for SI (selectivity index): Example 1, drug pretreatment 1 hour
[4] = system: SARS-CoV-2 virus (nCoV-2019BetaCoV/Wuhan/WIV04/2019 isolate); assay: EC50 by nucleic acid quantification on Vero cells (Example 3), quantitative RT-PCR; format: cell-based
[5] = MOI 0.01, Vero E6, read-out: EC50
[6] = MOI 0.05, Vero E6, read-out: EC50

CCN(CC)CCCC(C)Nc1ccnc2cc(Cl)ccc12 (centres unmarked) [Chloroquine phosphate, chloroquine phosphate]
Inhibition of SARS-CoV-2 (in words) [1]: obvious inhibitory effects; also recorded: inhibitory activity
EC50 [1, 5]: 4520 nM
EC50 [1, 6]: 3630 nM
CC50 at 24 h ([2]; unit inferred): 92.9 µM
Cell viability (% of vehicle control) (Vero-E6 cells; 3.70 μM): 93.26 % of vehicle control
Cell viability (% of vehicle control) (Vero-E6 cells; 11.11 μM): 90.60 % of vehicle control
Cell viability (% of vehicle control) (Vero-E6 cells; 33.33 μM): 72.67 % of vehicle control
Cell viability (% of vehicle control) (Vero-E6 cells; 66.67 μM): 68.35 % of vehicle control
Cell viability (% of vehicle control) (Vero-E6 cells; 100 μM): 44.84 % of vehicle control
Cell viability (% of vehicle control) (Vero-E6 cells; 200 μM): 41.01 % of vehicle control
Cell viability (% of vehicle control) (Vero-E6 cells; 300 μM): 0.63 % of vehicle control
Inhibition of replication of SARS-CoV-2 virus (in words) (SARS-CoV-2 virus): can effectively inhibit the replication
Copy number of viral genome (MOI = 0.01) ([3]; 0.21 μM): 3451032833
Copy number of viral genome (MOI = 0.05) ([3]; 0.21 μM): 5871676583
Copy number of viral genome (MOI = 0.01) ([3]; 0.62 μM): 2407772083
Copy number of viral genome (MOI = 0.05) ([3]; 0.62 μM): 5663562000
Copy number of viral genome (MOI = 0.01) ([3]; 1.85 μM): 1500455250
Copy number of viral genome (MOI = 0.05) ([3]; 1.85 μM): 4521430250
Copy number of viral genome (MOI = 0.01) ([3]; 5.56 μM): 692991541
Copy number of viral genome (MOI = 0.05) ([3]; 5.56 μM): 1814432458
Copy number of viral genome (MOI = 0.01) ([3]; 16.67 μM): 11907226
Copy number of viral genome (MOI = 0.05) ([3]; 16.67 μM): 52973263
Copy number of viral genome (MOI = 0.01) ([3]; 50 μM): 1019575
Copy number of viral genome (MOI = 0.05) ([3]; 50 μM): 1914748
Inhibition of SARS-CoV-2 (in words) [3]: obvious inhibitory effects; also recorded: inhibitory activity
EC50 [3, 5]: 1540 nM
EC50 [3, 6]: 3770 nM

COc1ccc2cc1Oc1ccc(cc1)C[C@H]1c3cc(c(OC)cc3CCN1C)Oc1c(OC)c(OC)cc3c1[C@H](C2)N(C)CC3 [Tetrandrine, 6,6′,7,12-tetramethoxy-2,2′-dimethylberbamine]
Inhibition of SARS-CoV-2 (in words) [1]: inhibitory activity
Inhibition of SARS-CoV-2 (in words) ([1]; listed as tetrandrine): obvious inhibitory effects
SI (selectivity index) ([1]; MOI 0.01): 15.22
SI (selectivity index) ([1]; MOI 0.05): 12.51
EC50 [1, 5]: 1610 nM
EC50 [1, 6]: 1950 nM
CC50 at 24 h [2]: 24.5 µM
Cell viability (% of vehicle control) (Vero-E6 cells; 1.56 μM): 94.81 % of vehicle control
Cell viability (% of vehicle control) (Vero-E6 cells; 3.13 μM): 97.38 % of vehicle control
Cell viability (% of vehicle control) (Vero-E6 cells; 6.25 μM): 91.24 % of vehicle control
Cell viability (% of vehicle control) (Vero-E6 cells; 12.5 μM): 78.14 % of vehicle control
Cell viability (% of vehicle control) (Vero-E6 cells; 25 μM): 58.25 % of vehicle control
Cell viability (% of vehicle control) (Vero-E6 cells; 50 μM): 0.28 % of vehicle control
Cell viability (% of vehicle control) (Vero-E6 cells; 100 μM): 0.96 % of vehicle control
Toxicity on Vero E6 cells (in words) (Vero-E6 cells; all tested concentrations): good safety for the test cells in vitro
Inhibition of SARS-CoV-2 (in words) ([4]; Example 3, cellular level, Vero cells): inhibitory effect
EC50 ([4]; Severe acute respiratory syndrome coronavirus 2, 48 h, Example 3, Vero cells, viral load 100 TCID50, two days after infection): 8.99 µM
Copy number of viral genome (MOI = 0.01) ([3]; 0.625 μM): 3357508000
Copy number of viral genome (MOI = 0.05) ([3]; 0.625 μM): 10669558667
Copy number of viral genome (MOI = 0.01) ([3]; 1.25 μM): 3336005167
Copy number of viral genome (MOI = 0.05) ([3]; 1.25 μM): 7198143667
Copy number of viral genome (MOI = 0.01) ([3]; 2.5 μM): 1707286250
Copy number of viral genome (MOI = 0.05) ([3]; 2.5 μM): 7118504000
Copy number of viral genome (MOI = 0.01) ([3]; 5 μM): 373861479
Copy number of viral genome (MOI = 0.05) ([3]; 5 μM): 2477488500
Copy number of viral genome (MOI = 0.01) ([3]; 10 μM): 1456943
Copy number of viral genome (MOI = 0.05) ([3]; 10 μM): 8161310
Copy number of viral genome (MOI = 0.01) ([3]; 20 μM): 1323393
Copy number of viral genome (MOI = 0.05) ([3]; 20 μM): 4092752
SI (selectivity index) ([3]; MOI 0.01): 14.33
SI (selectivity index) ([3]; MOI 0.05): 8.51
Inhibition of SARS-CoV-2 (in words) [3]: obvious inhibitory effects; also recorded: inhibitory activity
EC50 [3, 5]: 1710 nM
EC50 [3, 6]: 2880 nM

CCC(CC)COC(=O)[C@H](C)N[P@](=O)(OC[C@H]1O[C@@](C#N)(c2ccc3c(N)ncnn23)[C@H](O)[C@@H]1O)Oc1ccccc1 [Remdesivir]
SI (selectivity index) ([1]; MOI 0.01): 696.96
SI (selectivity index) ([1]; MOI 0.05): 258.55
EC50 ([1]; MOI 0.01, Vero E6): 230 nM
EC50 ([1]; MOI 0.05, Vero E6): 620 nM
CC50 at 24 h [2]: 160 µM
Cell viability (% of vehicle control) (Vero-E6 cells; 3.13 μM): 97.16 % of vehicle control
Cell viability (% of vehicle control) (Vero-E6 cells; 6.25 μM): 99.17 % of vehicle control
Cell viability (% of vehicle control) (Vero-E6 cells; 12.5 μM): 99.62 % of vehicle control
Cell viability (% of vehicle control) (Vero-E6 cells; 25 μM): 95.71 % of vehicle control
Cell viability (% of vehicle control) (Vero-E6 cells; 50 μM): 90.20 % of vehicle control
Cell viability (% of vehicle control) (Vero-E6 cells; 100 μM): 70.09 % of vehicle control
Cell viability (% of vehicle control) (Vero-E6 cells; 200 μM): 40.05 % of vehicle control
Copy number of viral genome (MOI = 0.01) ([3]; 0.12 μM): 3900176000
Copy number of viral genome (MOI = 0.05) ([3]; 0.12 μM): 11594175000
Copy number of viral genome (MOI = 0.01) ([3]; 0.37 μM): 1901120292
Copy number of viral genome (MOI = 0.05) ([3]; 0.37 μM): 9405568167
Copy number of viral genome (MOI = 0.01) ([3]; 1.11 μM): 19898611
Copy number of viral genome (MOI = 0.05) ([3]; 1.11 μM): 545157271
Copy number of viral genome (MOI = 0.01) ([3]; 3.33 μM): 243294
Copy number of viral genome (MOI = 0.05) ([3]; 3.33 μM): 13188656
Copy number of viral genome (MOI = 0.01) ([3]; 10 μM): 563645
Copy number of viral genome (MOI = 0.05) ([3]; 10 μM): 3230111
Copy number of viral genome (MOI = 0.01) ([3]; 30 μM): 975616
Copy number of viral genome (MOI = 0.05) ([3]; 30 μM): 2594526
SI (selectivity index) ([3]; MOI 0.01): 534.33
SI (selectivity index) ([3]; MOI 0.05): 271.69
EC50 ([3]; MOI 0.01, Vero E6): 300 nM
EC50 ([3]; MOI 0.05, Vero E6): 590 nM
